Experiments:
JAK1 = target: T1, JAK1 (Homo sapiens, UniProt P23458); assay: In vitro activity test of JAK1 kinase (Caliper EZ Reader conversion assay); type: biochemical; details: enzyme activity, 10 concentrations from 1000 nM, 3-fold dilution
T1 construct: purchased Carna 08-114
Method in brief: (§1)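 JAK1 or JAK2 pre-incubated with compound (top 1000 nM, 3-fold, 10 points, duplicate) for 10 min at room temperature, then ATP plus substrate added. Substrate conversion read by mobility-shift on Caliper EZ Reader after stop solution. Inhibition normalized to no-enzyme and DMSO controls; IC50 from variable-slope four-parameter fit.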

JAK2 = target: T2, JAK2 (Homo sapiens, UniProt O60674); assay: In vitro activity test of JAK2 kinase (Caliper EZ Reader conversion assay); type: biochemical; details: enzyme activity, 10 concentrations from 1000 nM, 3-fold dilution
T2 construct: purchased Carna 08-045
T2 sequence (O60674 whole entry, species assumed): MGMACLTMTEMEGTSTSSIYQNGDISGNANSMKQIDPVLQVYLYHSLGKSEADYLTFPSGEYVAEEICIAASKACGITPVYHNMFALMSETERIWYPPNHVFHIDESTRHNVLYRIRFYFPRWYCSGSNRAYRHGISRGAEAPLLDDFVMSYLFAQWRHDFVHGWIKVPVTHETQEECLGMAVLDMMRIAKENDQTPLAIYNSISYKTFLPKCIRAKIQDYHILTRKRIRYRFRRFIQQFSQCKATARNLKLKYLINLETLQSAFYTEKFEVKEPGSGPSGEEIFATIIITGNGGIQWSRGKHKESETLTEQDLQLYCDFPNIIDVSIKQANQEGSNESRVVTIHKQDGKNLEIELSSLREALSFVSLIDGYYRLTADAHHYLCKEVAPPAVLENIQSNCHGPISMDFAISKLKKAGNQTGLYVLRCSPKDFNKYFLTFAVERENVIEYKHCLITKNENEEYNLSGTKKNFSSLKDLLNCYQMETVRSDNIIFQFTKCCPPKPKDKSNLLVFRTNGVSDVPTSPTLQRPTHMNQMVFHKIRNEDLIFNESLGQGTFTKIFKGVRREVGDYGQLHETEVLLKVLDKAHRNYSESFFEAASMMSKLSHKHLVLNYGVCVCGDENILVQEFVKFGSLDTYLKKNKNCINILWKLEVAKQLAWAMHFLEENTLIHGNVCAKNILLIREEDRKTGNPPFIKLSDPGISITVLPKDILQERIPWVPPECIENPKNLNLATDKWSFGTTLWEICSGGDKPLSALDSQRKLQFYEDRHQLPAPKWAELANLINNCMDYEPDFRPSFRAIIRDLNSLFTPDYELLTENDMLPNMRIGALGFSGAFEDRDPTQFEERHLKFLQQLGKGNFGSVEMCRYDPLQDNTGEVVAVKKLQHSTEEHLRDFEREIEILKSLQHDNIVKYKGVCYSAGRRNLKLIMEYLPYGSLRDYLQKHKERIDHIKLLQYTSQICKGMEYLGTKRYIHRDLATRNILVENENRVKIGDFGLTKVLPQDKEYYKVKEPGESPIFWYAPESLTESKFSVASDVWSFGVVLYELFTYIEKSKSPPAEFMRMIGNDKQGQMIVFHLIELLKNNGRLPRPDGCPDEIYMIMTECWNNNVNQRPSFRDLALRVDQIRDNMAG
Method in brief: as §1

T1 sequence (P23458 whole entry, species assumed): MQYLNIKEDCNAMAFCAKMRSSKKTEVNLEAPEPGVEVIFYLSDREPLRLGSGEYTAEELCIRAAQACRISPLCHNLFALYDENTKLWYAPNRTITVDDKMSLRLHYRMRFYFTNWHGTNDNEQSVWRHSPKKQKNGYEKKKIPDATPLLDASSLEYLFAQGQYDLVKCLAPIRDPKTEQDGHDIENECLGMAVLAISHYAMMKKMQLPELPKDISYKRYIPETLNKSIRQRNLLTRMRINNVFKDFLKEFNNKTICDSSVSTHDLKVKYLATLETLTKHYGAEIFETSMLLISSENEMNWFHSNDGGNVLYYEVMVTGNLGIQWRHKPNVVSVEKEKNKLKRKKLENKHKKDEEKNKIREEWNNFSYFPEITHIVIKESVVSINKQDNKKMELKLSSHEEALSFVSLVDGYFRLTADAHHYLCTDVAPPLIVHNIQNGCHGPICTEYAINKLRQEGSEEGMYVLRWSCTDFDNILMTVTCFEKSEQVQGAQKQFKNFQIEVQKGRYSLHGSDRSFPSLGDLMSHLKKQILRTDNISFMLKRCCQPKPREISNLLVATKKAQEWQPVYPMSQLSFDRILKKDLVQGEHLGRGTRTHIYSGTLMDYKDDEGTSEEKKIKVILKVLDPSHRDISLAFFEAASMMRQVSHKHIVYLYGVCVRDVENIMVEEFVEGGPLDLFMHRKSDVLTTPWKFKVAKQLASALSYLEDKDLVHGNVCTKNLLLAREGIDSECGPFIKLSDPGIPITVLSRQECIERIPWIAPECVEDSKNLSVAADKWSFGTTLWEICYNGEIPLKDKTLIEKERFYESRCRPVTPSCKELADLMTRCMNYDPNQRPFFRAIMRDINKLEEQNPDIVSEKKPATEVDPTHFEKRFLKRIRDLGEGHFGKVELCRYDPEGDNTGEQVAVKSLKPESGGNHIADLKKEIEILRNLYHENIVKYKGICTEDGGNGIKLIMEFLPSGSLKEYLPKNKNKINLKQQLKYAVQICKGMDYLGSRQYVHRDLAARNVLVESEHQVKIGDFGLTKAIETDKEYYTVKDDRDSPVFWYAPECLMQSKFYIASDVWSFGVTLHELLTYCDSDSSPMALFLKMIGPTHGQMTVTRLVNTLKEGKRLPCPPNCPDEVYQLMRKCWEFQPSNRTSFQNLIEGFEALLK

| SMILES | IC50 (JAK1) [nM] | IC50 (JAK2) [nM] |
| --- | --- | --- |
| CCS(=O)(=O)N1CC(CC#N)(n2cc(-n3c(-c4ccc(C)o4)nc4cnc5[nH]ccc5c43)cn2)C1 [LXS77, 2-(1-(ethylsulfonyl)-3-(4-(2-(5-methylfuran-2-yl)imidazolyl[4,5-d]pyrrolo[2,3-b]pyridin-1(6H)-yl)-1H-pyrazol-1-yl)azetidin-3-yl) acetonitrile] | 100 to 1000 | < 10 |
| N#CCn1cc(-n2c(C(F)(F)F)nc3cnc4[nH]ccc4c32)cn1 [LXS78, 2-(4-(2-(Trifluoromethyl)imidazo[4,5-d]pyrrolo[2,3-b]pyridin-1(6H)-yl)-1H-pyrazol-1-yl)acetonitrile] | 10 to 100 | 10 to 100 |
| N#CCCn1cc(-n2cnc3cnc4[nH]ccc4c32)cn1 [LXS79, 3-(4-(Imidazo[4,5-d]pyrrolo[2,3-b]pyridin-1(6H)-yl)-1H-pyrazol-1-yl)propanenitrile] | 100 to 1000 | < 10 |
| N#CCCn1cc(-n2c(-c3ccccc3Cl)nc3cnc4[nH]ccc4c32)cn1 [LXS80, 3-(4-(2-(2-Chlorophenyl)imidazo[4,5-d]pyrrolo[2,3-b]pyridin-1(6H)-yl)-1H-pyrazol-1-yl)propanenitrile] | 10 to 100 | 10 to 100 |
| N#CCn1cc(-n2c(-c3ccc(CO)o3)nc3cnc4[nH]ccc4c32)cn1 [LXS81, 2-(4-(2-(5-(Hydroxymethyl)furan-2-yl)imidazo[4,5-d]pyrrolo[2,3-b]pyridin-1(6H)-yl)-1H-pyrazol-1-yl)acetonitrile] | 10 to 100 | 10 to 100 |
| N#CCCn1cc(-n2c(-c3cccc(O)c3)nc3cnc4[nH]ccc4c32)cn1 [LXS82, 3-(4-(2-(3-Hydroxyphenyl)imidazo[4,5-d]pyrrolo[2,3-b]pyridin-1(6H)-yl)-1H-pyrazol-1-yl)propanenitrile] | 10 to 100 | 10 to 100 |
| N#CCCn1cc(-n2c(-c3ccccc3F)nc3cnc4[nH]ccc4c32)cn1 [LXS83, 3-(4-(2-(2-Fluorophenyl)imidazo[4,5-d]pyrrolo[2,3-b]pyridin-1(6H)-yl)-1H-pyrazol-1-yl)propanenitrile] | 10 to 100 | 10 to 100 |
| C[C@@H](O)c1nc2cnc3[nH]ncc3c2n1[C@H]1CCN(CCCC#N)C1 [LXS85, 4-((S)-3-(2-((R)-1-Hydroxyethyl)imidazo[4,5-d]pyrazolo[3,4-b]pyridin-1(6H)-yl)pyrrolidin-1-yl)butanenitrile] | < 10 | 100 to 1000 |
| C[C@@H](O)c1nc2cnc3[nH]ccc3c2n1[C@@H]1CN(CCCC(F)(F)F)CC1F (stereo partly drawn) [LXS86, (1R)-1-(1-((3R)-4-fluoro-1-(4,4,4-trifluorobutyl)pyrrolidin-3-yl)-1,6-dihydroimidazo[4,5-d]pyrrolo[2,3-b]pyridin-2-yl)ethan-1-ol] | < 10 | 100 to 1000 |
| C[C@@H](O)c1nc2cnc3[nH]ccc3c2n1[C@@H]1CN(CCCC(F)(F)F)C[C@H]1F [LXS87, (R)-1-(1-((3R,4R)-4-fluoro-1-(4,4,4-trifluorobutyl)pyrrolidin-3-yl)-1,6-dihydroimidazo[4,5-d]pyrrolo[2,3-b]pyridin-2-yl)ethan-1-ol] | < 10 | 100 to 1000 |
| C[C@@H](O)c1nc2cnc3[nH]ccc3c2n1[C@H]1C[C@@H](CO)N(CCCC(F)(F)F)C1 [LXS89, (R)-1-(1-((3S,5S)-5-(hydroxymethyl)-1-(4,4,4-trifluorobutyl)pyrrolidin-3-yl)-1,6-dihydroimidazo[4,5-d]pyrrolo[2,3-b]pyridin-2-yl)ethan-1-ol] | 10 to 100 | 100 to 1000 |
| C[C@@H](O)c1nc2cnc3[nH]ncc3c2n1[C@H]1CCN(CCCC(F)(F)F)C1 [LXS90, (R)-1-(1-((S)-1-(4,4,4-trifluorobutyl)pyrrolidin-3-yl)-1,6-dihydroimidazo[4,5-d]pyrazolo[3,4-b]pyridin-2-yl)ethan-1-ol] | 10 to 100 | 100 to 1000 |
| C[C@@H](O)c1nc2cnc3[nH]ccc3c2n1[C@H]1C[C@H](CO)N(CCCC(F)(F)F)C1 [LXS91, (R)-1-(1-((3S,5R)-5-(hydroxymethyl)-1-(4,4,4-trifluorobutyl)pyrrolidin-3-yl)-1,6-dihydroimidazo[4,5-d]pyrrolo[2,3-b]pyridin-2-yl)ethan-1-ol] | < 10 | 100 to 1000 |
| C[C@@H](O)c1nc2cnc3[nH]ncc3c2n1[C@@H]1CN(CCCC#N)CC1F (stereo partly drawn) [LXS93, 4-((4R)-3-Fluoro-4-(2-((R)-1-hydroxyethyl)imidazo[4,5-d]pyrazolo[3,4-b]pyridin-1(6H)-yl)pyrrolidin-1-yl)butanenitrile] | < 10 | 100 to 1000 |
| C[C@@H](O)c1nc2cnc3[nH]ncc3c2n1[C@H]1C[C@@H](CO)N(CCCC#N)C1 [LXS94, 4-((2S,4S)-4-(2-((R)-1-Hydroxyethyl)imidazo[4,5-d]pyrazolo[3,4-b]pyridin-1(6H)-yl)-2-(hydroxymethyl)pyrrolidin-1-yl)butanenitrile] | 10 to 100 | 100 to 1000 |
| C[C@@H](O)c1nc2cnc3[nH]ccc3c2n1[C@H]1CCN(CCC(F)(F)F)C1 [LXS96, (R)-1-(1-((S)-1-(3,3,3-trifluoropropyl)pyrrolidin-3-yl)imidazo[4,5-d]pyrrolo[2,3-b]pyridin-2-yl)ethanol] | < 10 | 100 to 1000 |
| C[C@@H](O)c1nc2cnc3[nH]ccc3c2n1[C@H]1CCN(CCC(F)(F)C(F)(F)F)C1 [LXS97, (R)-1-(1-((S)-1-(3,3,4,4,4-Pentafluorobutyl)pyrrolidin-3-yl)imidazo[4,5-d]pyrrolo[2,3-b]pyridin-2-yl)ethanol] | < 10 | 100 to 1000 |
| OCc1ccc(-c2nc3cnc4[nH]ccc4c3n2[C@H]2CCN(CCCC(F)(F)F)C2)o1 [LXS98, (S)-(5-(1-(1-(4,4,4-trifluorobutyl)pyrrolidin-3-yl)-1,6-dihydroimidazo[4,5-d]pyrrolo[2,3-b]pyridin-2-yl)furan-2-yl)methanol] | 10 to 100 | 10 to 100 |
| Oc1cccc(-c2nc3cnc4[nH]ccc4c3n2[C@H]2CCN(CCCC(F)(F)F)C2)c1 [LXS99, (S)-3-(1-(1-(4,4,4-trifluorobutyl)pyrrolidin-3-yl)-1,6-dihydroimidazo[4,5-d]pyrrolo[2,3-b]pyridin-2-yl)phenol] | 10 to 100 | 10 to 100 |
| C[C@@H](O)c1nc2cnc3[nH]ccc3c2n1[C@H]1CCN(CC(F)(F)C(F)(F)C(F)(F)F)C1 [LXS100, (R)-1-(1-((S)-1-(2,2,3,3,4,4,4-Heptafluorobutyl)pyrrolidin-3-yl)imidazo[4,5-d]pyrrolo[2,3-b]pyridin-2-yl)ethanol] | < 10 | 100 to 1000 |
| C[C@@H](O)c1nc2cnc3[nH]ccc3c2n1[C@H]1CCN(C(F)(F)C(F)(F)C(F)(F)C(F)(F)F)C1 [LXS101, (R)-1-(1-((S)-1-(Perfluoro-butyl)pyrrolidin-3-yl)-1,6-dihydroimidazo[4,5-d]pyrrolo[2,3-b]pyridin-2-yl)ethanol] | < 10 | 100 to 1000 |
| C[C@@H](O)c1nc2cnc3[nH]ccc3c2n1[C@H]1CCN(S(=O)(=O)CCC(F)(F)F)C1 [LXS102, (R)-1-(1-((S)-1-((3,3,3-Trifluoropropyl)sulfonyl)pyrrolidin-3-yl)imidazo[4,5-d]pyrrolo[2,3-b]pyridin-2-yl)ethanol] | < 10 | 100 to 1000 |
| N#CCCCn1cc(-n2cnc3cnc4[nH]ccc4c32)cn1 [LXS103, 4-(4-(imidazo[4,5-d]pyrrolo[2,3-b]pyridin-1(6H)-yl)-1H-pyrazol-1-yl)butanenitrile] | 10 to 100 | 10 to 100 |
| Cc1ccc(-c2nc3cnc4[nH]ccc4c3n2-c2cnn(CCCC#N)c2)o1 [LXS104, 4-(4-(2-(5-methylfuran-2-yl)imidazo[4,5-d]pyrrolo[2,3-b]pyridin-1(6H)-yl)-1H-pyrazol-1-yl)butanenitrile] | 10 to 100 | 10 to 100 |
| Cc1ccc(-c2nc3cnc4[nH]ccc4c3n2-c2cnn(CCCC#N)c2)s1 [LXS105] | 100 to 1000 | 10 to 100 |
| N#CCCn1cc(-n2c(-c3cccs3)nc3cnc4[nH]ccc4c32)cn1 [LXS106, 3-(4-(2-(Thiophen-2-yl)imidazo[4,5-d]pyrrolo[2,3-b]pyridin-1(6H)-yl)-1H-pyrazol-1-yl)propanenitrile] | 100 to 1000 | 10 to 100 |
| N#CCCCn1cc(-n2c(C3CCC3)nc3cnc4[nH]ccc4c32)cn1 [LXS107, 4-(4-(2-cyclobutylimidazo[4,5-d]pyrrolo[2,3-b]pyridin-1(6H)-yl)-1H-pyrazol-1-yl)butanenitrile] | 100 to 1000 | 10 to 100 |
| N#CCCCn1cc(-n2c(C3CC3)nc3cnc4[nH]ccc4c32)cn1 [LXS108, 4-(4-(2-cyclopropylimidazo[4,5-d]pyrrolo[2,3-b]pyridin-1(6H)-yl)-1H-pyrazol-1-yl)butanenitrile] | 100 to 1000 | 10 to 100 |
| N#CCN1CCC(n2c(-c3cccc(O)c3)nc3cnc4[nH]ccc4c32)C1 (stereo not shown) [LXSS3, 2-(3-(2-(3-Hydroxyphenyl)imidazo[4,5-d]pyrrolo[2,3-b]pyridin-1(6H)-yl)pyrrolidin-1-yl)acetonitrile] | 10 to 100 | 10 to 100 |
